Test results from PMC6017025, “Pharmacokinetics of Schizandrin and Its Pharmaceutical Products Assessed Using a Validated LC–MS/MS Method” (Molecules : A Journal of Synthetic Chemistry and Natural …, 2018).
Where two headings read alike, the source gives them in different places.

Columns and labels:
[1] = Pharmacokinetics of schizandrin in plasma of freely moving rats after i.v./oral schizandrin or oral S. chinensis product (LC-MS/MS, noncompartmental analysis); assay type: in vivo, rat
Description: All experimental protocols involving animals were reviewed and approved by the Institutional Animal Care and Use Committee (IACUC number: 1060813) of National Yang-Ming University. Male Sprague-Dawley rats were obtained from the Laboratory Animal Center of the National Yang-Ming University, Taipei, Taiwan. The animals had free access to food (laboratory rodent diet 5P14, PMI Feeds, Richmond, IN) and water. Six Sprague-Dawley rats (220–240 g) were anesthetized with pentobarbital (50 mg/kg, i.p.) for cannulation. Surgical sites were shaved and disinfected with 70% ethanol solution, and a polyethylene tube (PE50) was implanted into the right jugular vein for collecting blood samples. The cannula were exteriorized and fixed in the dorsal region of the neck. Patency of the tube was maintained by flushing with heparinized saline (20 IU/mL). Rats were allowed to recover 24 h prior to drug administration. Schizandrin was dissolved in 10%DMSO and triply deionized water and administered by gastric gavage at a dose of 10 mg/kg. Schizandrin was dissolved in 10%ethanoland triply deionized water and administered by intravenous injection at a dose of 10 mg/kg. The S. chinensis pharmaceutical product was dissolved in triply deionized water and administered by gastric gavage at a dose of 3 g/kg and 10 g/kg (equivalent to 5.2 mg/kg and 17.3 mg/kg schizandrin).The gavage administration of S. chinensis volume was 3 mL. A 200 μL blood sample was withdrawn from the right jugular vein […] into a heparin-rinsed vial at 5, 15, 30, 45, 60, 90, 120, 150, 180, 240, 360 and 480 min. Blood samples were centrifuged at 6000× g for 10 min at 4 °C. The biological samples were stored at −20 °C before analysis.
Each blood sample (50 μL) was mixed with 1 mL of ethyl acetate and vortexed for 5 min. The mixture was centrifuged at 16000× g for 10 min at 4 °C. The supernatant (1 mL) was transferred to an Eppendorf vial and dried at 40 °C in a centrifugation evaporator. The dried sample was reconstituted in 190 μL of methanol and IS solution (methyl yellow, 5 ng/mL in methanol) and filtered through a 0.22 μm filter. Finally, the filtrate (10 μL) was applied to the UPLC-MS/MS system for analysis.
The LC–MS/MS analysis was performed using a Waters Acquity UPLC™ system (Waters Co., Manchester, UK) consisting of binary solvent manager, an automatic liquid chromatographic sampler and a Waters Xevo^TM tandem quadrupole mass spectrometry equipped with an electrospray ionization (ESI) source. The chromatography was performed on a Purospher® STAR RP-18 endcapped (100 mm × 2.1 mm, 2 μm, Merck KGaA, Darmstadt, Germany) analytical column and maintained at 40 °C in a column oven. The mobile phase consisted of 0.1% formic acid-methanol (15:85, v/v), and the flow rate was set at 0.2 mL/min. The injection volume was 10 μL. The positive ion mode with a multiple reaction monitor (MRM) was used for UPLC-MS/MS analysis. The following precursor-to-product ion transitions were used: m/z 433.22→415.19 for schizandrin and m/z 226.26→76.91 for methyl yellow (internal standard, IS).The instrument parameters were optimized as follows: capillary voltage, 3.2 kV; desolvation gas, nitrogen; desolvation temperature, 400 °C; desolvation gas flow rate, 800 L/h; cone voltage, 18 V; collision energy, 12 V and source temperature, 150 °C. MassLynx 4.1 software (Waters Corporation, Milford, MA, USA) was used for data processing.
Pharmacokinetic calculations were performed on each individual set of data using the pharmacokinetic software WinNonlin Standard Edition, version 1.1 (Scientific Consulting Inc., Apex, NC, USA) by noncompartmental methods for intravenous and oral administration. The results were analyzed using Student’s t-test and the SigmaPlot program (version 13). All data are presented as the mean ± standard deviation (SD).

[2] = Stability of schizandrin in rat plasma (method validation); assay type: in vitro ADME; conditions: for Autosampler Stability / Short-Term Stability / Freeze-Thaw Stability / Long-Term Stability: rat plasma, in % (unit assumed); for Autosampler Stability: 10 °C for 24 h in autosampler; for Short-Term Stability: room temperature for 12 h; for Long-Term Stability: −20 °C for 1 month
Description: (§1) Three concentrations (low, medium, and high) were evaluated for stability. The schizandrin concentrations of 5, 50, and 500 ng/mL were used in the method validation.
Stability was evaluated under four conditions: […]; […]; long-term stability kept at −80 °C for 1 month; and freeze-thaw stability: three samples were frozen and stored at −20 °C for 24 h and then thawed at room temperature. After repeating this cycle three times, the samples were analyzed by UHPLC-MS/MS.

[3] = Stability of schizandrin stock solution; assay type: physicochemical; conditions: up to 1 month at −20 °C
Description: as §1

[4] = male, Sprague-Dawley, iv, schizandrin 10 mg/kg, rat plasma, n = 6
[5] = male, Sprague-Dawley, po, schizandrin 10 mg/kg, rat plasma, n = 6
[6] = schizandrin 10 mg/kg, p.o., rat plasma, n = 6

COc1cc2c(c(OC)c1OC)-c1c(cc(OC)c(OC)c1OC)C[C@](C)(O)[C@@H](C)C2 [schizandrin]
concentration at 15 min ([1]; male, Sprague-Dawley, intravenous, plasma sample from jugular vein of a rat at 15 min after 10 mg/kg, i.v. (Figure 2C)): 31.8 ng/mL | AUC [1, 4]: 718 ng·h/mL | MRT [1, 4]: 34.8 min | clearance [1, 4]: 240 ± 30 mL/min/kg | half-life [1, 4]: 42.2 ± 14.8 min | clearance ([1]; male, Sprague-Dawley, plasma, schizandrin intravenous group (10 mg/kg), rat): 90 mL/min | AUC [1, 5]: 112 ng·h/mL | Cmax [1, 5]: 60 ± 30 ng/mL | MRT [1, 5]: 113 min | half-life [1, 5]: 74.7 ± 33.6 min | bioavailability ([1]; male, Sprague-Dawley, rat, plasma, oral, 10 mg/kg, schizandrin 10 mg/kg, p.o. vs 10 mg/kg i.v., rat, read-out: F (bioavailability)): ~15.6% | Tmax ([1]; male, Sprague-Dawley, rat, plasma, po, 10 mg/kg, schizandrin 10 mg/kg, p.o., rat plasma, n = 6, read-out: Tmax): ≤ 30 min | clearance (CL) ([1]; schizandrin 10 mg/kg orally, rat): 340 ± 1240 mL/min/kg | CL [1, 6]: 340 ± 1240 mL/min/kg | Tmax [1, 6]: 22.50 ± 12.55 min | degradation in biological samples ([2]; autosampler 24 h at 10 °C, 12 h at room temperature, 1 month at −80 °C, three freeze-thaw cycles): No significant degradation | Autosampler Stability ([2]; 5 ng/mL): −1.78 ± 2.25 | Short-Term Stability ([2]; 5 ng/mL): −1.63 ± 8.36 | Freeze-Thaw Stability ([2]; 5 ng/mL, three freeze-thaw cycles): −8.04 ± 3.19 | Long-Term Stability ([2]; 5 ng/mL): −0.56 ± 0.39 | Autosampler Stability ([2]; 50 ng/mL): 3.17 ± 3.19 | Short-Term Stability ([2]; 50 ng/mL): 5.70 ± 4.52 | Freeze-Thaw Stability ([2]; 50 ng/mL, three freeze-thaw cycles): −5.16 ± 3.83 | Long-Term Stability ([2]; 50 ng/mL): −9.02 ± 0.40 | Autosampler Stability ([2]; 500 ng/mL): 0.43 ± 0.12 | Short-Term Stability ([2]; 500 ng/mL): 0.64 ± 0.08 | Freeze-Thaw Stability ([2]; 500 ng/mL, three freeze-thaw cycles): −0.63 ± 0.30 | Long-Term Stability ([2]; 500 ng/mL): −6.75 ± 6.39 | stability of stock solution [3]: stable
